Reference: BindingDB's records for doi:10.1021/jm9604437 (Hoechst Marion Roussel, 1996)

Tests used:
[1] = molecular target: Dihydroorotate dehydrogenase (quinone), mitochondrial (Mus musculus, UniProt O35435); test: Inhibitory concentration tested on enzyme dihydroorotate dehydrogenase in mouse
[2] = molecular target: Dihydroorotate dehydrogenase (quinone), mitochondrial (Rattus norvegicus, UniProt Q63707); test: Inhibitory concentration tested against enzyme dihydroorotate dehydrogenase in rat
Chain of Dihydroorotate dehydrogenase (quinone), mitochondrial (Rattus norvegicus, UniProt Q63707) (Q63707 whole entry): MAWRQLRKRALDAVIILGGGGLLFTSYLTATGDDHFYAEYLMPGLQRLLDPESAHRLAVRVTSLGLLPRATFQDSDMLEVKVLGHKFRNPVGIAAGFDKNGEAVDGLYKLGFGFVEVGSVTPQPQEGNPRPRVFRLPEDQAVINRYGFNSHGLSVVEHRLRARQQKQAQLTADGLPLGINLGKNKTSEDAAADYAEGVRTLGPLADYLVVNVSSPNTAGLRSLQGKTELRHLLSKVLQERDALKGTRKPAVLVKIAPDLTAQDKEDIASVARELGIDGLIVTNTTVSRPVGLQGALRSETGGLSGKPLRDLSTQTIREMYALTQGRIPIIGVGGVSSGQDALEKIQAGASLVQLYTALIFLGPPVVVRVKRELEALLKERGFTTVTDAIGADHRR

Chain of Dihydroorotate dehydrogenase (quinone), mitochondrial (Mus musculus, UniProt O35435) (O35435 whole entry): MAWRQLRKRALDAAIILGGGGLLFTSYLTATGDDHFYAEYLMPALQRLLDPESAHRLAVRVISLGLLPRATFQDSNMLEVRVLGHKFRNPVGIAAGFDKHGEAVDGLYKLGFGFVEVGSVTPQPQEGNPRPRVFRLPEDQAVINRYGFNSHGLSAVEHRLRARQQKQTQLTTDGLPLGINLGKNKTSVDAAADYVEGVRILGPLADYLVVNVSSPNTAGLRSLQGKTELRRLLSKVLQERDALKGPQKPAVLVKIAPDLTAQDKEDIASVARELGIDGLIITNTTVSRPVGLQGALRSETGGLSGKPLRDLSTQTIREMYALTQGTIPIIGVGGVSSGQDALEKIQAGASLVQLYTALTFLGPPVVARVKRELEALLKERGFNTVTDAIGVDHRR

| SMILES | IC50 [1] | IC50 [2] |
| --- | --- | --- |
| CC=CC(=O)C(C#N)C(=O)Nc1ccc(C(F)(F)F)cc1 (centres undefined) | 0.063 µM | – |
| N#CC(C(=O)Nc1ccc(C(F)(F)F)cc1)C(=O)c1ccc(C(F)(F)F)cc1 (centres undefined) [2-Cyano-3-hydroxy-3,N-bis-(4-trifluoromethyl-phenyl)-acrylamide] | > 100 µM | > 100 µM |
| N#CC(C(=O)Nc1ccccc1C(F)(F)F)C(=O)C1CC1 (centres undefined) [(Z)-2-Cyano-3-cyclopropyl-3-hydroxy-N-(2-trifluoromethyl-phenyl)-acrylamide] | > 100 µM | > 100 µM |
| CN1CCCC1C(=O)C(C#N)C(=O)Nc1ccc(C(F)(F)F)cc1 (centres undefined) [(Z)-2-Cyano-3-hydroxy-3-(1-methyl-pyrrolidin-2-yl)-N-(4-trifluoromethyl-phenyl)-acrylamide] | > 100 µM | > 100 µM |
| N#CC(C(=O)Nc1ccc(C(F)(F)F)cc1)C(=O)C1CCCN1 (centres undefined) [(Z)-2-Cyano-3-hydroxy-3-pyrrolidin-2-yl-N-(4-trifluoromethyl-phenyl)-acrylamide] | > 100 µM | > 100 µM |
